Source: PubChem BioAssay AID651872 (NMMLSC, 2012)

Target: Beta-2 adrenergic receptor (Homo sapiens) (UniProt P07550)
Test: ADRB2 activation measured by internalization – cell-based, FAP fluorogen, flow cytometry, powder set 4, dose response (AID 651872)
Conditions: AM2.2-beta2AR cells, 90 min

Chain of Beta-2 adrenergic receptor (Homo sapiens) (P07550 whole entry, looked up): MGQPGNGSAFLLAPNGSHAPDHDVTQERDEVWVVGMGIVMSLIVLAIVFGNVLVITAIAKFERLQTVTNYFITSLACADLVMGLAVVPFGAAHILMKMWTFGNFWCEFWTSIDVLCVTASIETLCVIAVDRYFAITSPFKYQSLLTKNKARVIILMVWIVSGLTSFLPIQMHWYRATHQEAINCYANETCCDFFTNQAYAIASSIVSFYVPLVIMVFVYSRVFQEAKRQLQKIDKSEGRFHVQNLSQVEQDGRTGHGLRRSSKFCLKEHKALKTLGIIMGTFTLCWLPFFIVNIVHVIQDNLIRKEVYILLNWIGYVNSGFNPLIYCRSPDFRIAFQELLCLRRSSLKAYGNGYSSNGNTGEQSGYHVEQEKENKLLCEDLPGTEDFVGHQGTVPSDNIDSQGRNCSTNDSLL

Row | EC50 [nM] | Compound
1 | 9640 | CN(CC(=O)N1CCN(c2cccc(C(F)(F)F)c2)CC1)S(=O)(=O)c1ccc(F)cc1
2 | 10.5 | CC(=O)Nc1ccc(S(=O)(=O)N2CCCCC2c2cccnc2)cc1 (stereo unspecified)
3 | 1.6 | Cc1ccc(S(=O)(=O)N(C)CC(=O)N2CCN(c3ccccn3)CC2)cc1
4 | 26.2 | O=C(C1CCC(=O)N1S(=O)(=O)c1ccccc1)N1CCN(c2ccccn2)CC1 (stereo unspecified)
5 | 676 | COc1ccccc1N1CCN(C(=O)CN(C)S(=O)(=O)c2ccc(C)cc2)CC1
6 | 208 | O=C(CN(Cc1ccccc1)S(=O)(=O)c1ccc(Cl)cc1)N1CCN(c2ccccn2)CC1
